Strand notation (5' to 3'): a small letter for the sugar, then the base; units joined by * are phosphorothioate-linked, units joined directly phosphodiester-linked; [ ] holds rarer units or linkages, { } end groups; capitals alone tell only the bases. k = constrained ethyl (cEt); [5mC] = 5-methylcytosine; d = 2'-deoxy (DNA)
tested on: human SMAD7 mRNA; assay: Antisense inhibition of human SMAD7 mRNA expression in Hep3B cells by 3-10-3 cEt gapmers, 10,000 nM, electroporation (Example 2); type: cell-based; details: Hep3B cells, 10,000 nM antisense oligonucleotide, electroporation, approximately 24 hours, RT-PCR primer probe set RTS5062, relative to untreated control cells
In short: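 Percent inhibition of SMAD7 mRNA, relative to untreated cells, after ~24 h exposure of electroporated Hep3B cells to 10,000 nM cEt gapmer; levels by qRT-PCR, corrected for total RNA.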

Which “% Inhibition” value does the source give for “798855 (kT*kT*kG*dT*dA*d[5mC]*dA*d[5mC]*d[5mC]*d[5mC]*dA*d[5mC]*dA*k[5mC]*kA*k[5mC]; antisense) [compound 798855]” here?
The value was 11%.

With “799975 (kT*k[5mC]*kT*dT*d[5mC]*dA*dG*dG*dG*dA*d[5mC]*dA*dA*kG*k[5mC]*k[5mC]; antisense) [compound 799975]” as the substance, how does the “% Inhibition” value read?
Its value is 38%.

How did the “% Inhibition” value turn out when “799934 (antisense kA*k[5mC]*kT*dT*dT*dT*dT*dA*d[5mC]*dT*d[5mC]*dT*dG*kT*k[5mC]*kT) [compound 799934]” was run?
Its value is 61%.

Which “% Inhibition” value does the source give for “799853 (k[5mC]*k[5mC]*kA*dA*dG*dT*dG*dT*d[5mC]*d[5mC]*dA*dT*d[5mC]*kA*kA*kG; antisense) [compound 799853]” here?
Its value is 42%.

With “799970 (kT*k[5mC]*k[5mC]*dT*d[5mC]*dA*dG*dG*dA*dA*dA*d[5mC]*dA*k[5mC]*kA*kG; antisense) [compound 799970]” as the substance, how does the “% Inhibition” value read?
The value was 43%.

same assay, conditions: Hep3B cells, electroporation with 10,000 nM antisense oligonucleotide, approximately 24 hours, RTS5062, percent inhibition of SMAD7 mRNA relative to untreated control cells

With “799841 (antisense kA*kA*kA*dG*dA*dA*dT*dG*dG*dT*dG*dG*dG*kT*kG*k[5mC]) [compound 799841]” as the substance, how does the “% Inhibition” value read?
Its value is 37%.

How did the “% Inhibition” value turn out when “799782 (k[5mC]*kA*kT*dA*dA*dT*dA*dG*dG*dT*dG*dT*d[5mC]*kA*kA*kT; antisense) [compound 799782]” was run?
Its value is 4%.

For “799650 (antisense k[5mC]*kA*kG*d[5mC]*dA*dG*dA*d[5mC]*dA*dG*dG*d[5mC]*dA*kA*kA*kA) [compound 799650]”, which “% Inhibition” value is on record?
Its value is 46%.

Which “% Inhibition” value does the source give for “799788 (k[5mC]*kA*k[5mC]*dA*dA*d[5mC]*d[5mC]*dA*dA*dA*dG*d[5mC]*dA*kG*kA*kA; antisense) [compound 799788]” here?
The value was 59%.

Which “% Inhibition” value does the source give for “799747 (antisense kA*kA*kA*dT*dG*dG*dG*dA*dA*dA*dT*dA*dA*kG*kG*k[5mC]) [compound 799747]” here?
Its value is 43%.

Which “% Inhibition” value does the source give for “790714 (kA*kG*k[5mC]*d[5mC]*dA*dG*dT*dT*dA*dA*dT*d[5mC]*dA*kT*kT*kA; antisense) [compound 790714]” here?
The value was 11%.

With “799842 (antisense kG*kA*kA*dA*dG*dA*dA*dT*dG*dG*dT*dG*dG*kG*kT*kG) [compound 799842]” as the substance, how does the “% Inhibition” value read?
The value was 16%.

same assay, conditions: Hep3B cells, electroporation with 10,000 nM antisense oligonucleotide, approximately 24 hours, SMAD7 mRNA by RT-PCR (RTS5062), relative to untreated control cells

Which “% Inhibition” value does the source give for “800080 (antisense kG*kG*kG*d[5mC]*dT*dA*d[5mC]*d[5mC]*dT*dT*dA*dA*d[5mC]*kA*kA*kA) [compound 800080]” here?
Its value is 14%.

Which “% Inhibition” value does the source give for “830179 (antisense kT*kT*kT*dA*d[5mC]*dT*dG*d[5mC]*dA*dT*dT*d[5mC]*d[5mC]*kG*kG*k[5mC]) [compound 830179]” here?
Its value is 51%.

For “799331 (kA*kG*kG*dG*dT*dA*dT*dG*d[5mC]*dA*d[5mC]*dA*d[5mC]*kT*k[5mC]*kT; antisense) [compound 799331]”, which “% Inhibition” value is on record?
Its value is 1%.

“799866 (k[5mC]*kA*k[5mC]*d[5mC]*dG*d[5mC]*dG*d[5mC]*dA*dG*dG*dG*dA*k[5mC]*kA*kG; antisense) [compound 799866]” was tested. Which “% Inhibition” value did it give?
The value was 0%.

For “799472 (antisense kA*kG*k[5mC]*d[5mC]*dA*dT*dA*d[5mC]*d[5mC]*dT*d[5mC]*d[5mC]*dA*kT*k[5mC]*kT) [compound 799472]”, which “% Inhibition” value is on record?
Its value is 31%.

For “830193 (antisense k[5mC]*kT*kT*dT*dT*d[5mC]*d[5mC]*dG*dG*dT*dA*dT*dT*kT*kT*k[5mC]) [compound 830193]”, which “% Inhibition” value is on record?
The value was 35%.

How did the “% Inhibition” value turn out when “799881 (kA*kA*kT*dA*dA*dA*dT*dT*d[5mC]*d[5mC]*dA*dA*dT*kG*k[5mC]*kA; antisense) [compound 799881]” was run?
Its value is 0%.

Which “% Inhibition” value does the source give for “830140 (antisense kT*k[5mC]*k[5mC]*dT*dA*dA*dG*d[5mC]*dT*dA*d[5mC]*dT*dT*kG*kG*kT) [compound 830140]” here?
The value was 12%.

Which “% Inhibition” value does the source give for “799905 (antisense kA*kG*kT*d[5mC]*dG*dA*dA*dT*d[5mC]*dA*dT*dT*dT*k[5mC]*kT*k[5mC]) [compound 799905]” here?
The value was 53%.

Which “% Inhibition” value does the source give for “772556 (antisense kA*kG*k[5mC]*dA*dG*dG*dA*dG*dG*d[5mC]*dA*d[5mC]*dG*k[5mC]*kG*kG) [compound 772556]” here?
Its value is 43%.

“798679 (antisense k[5mC]*kT*k[5mC]*d[5mC]*dG*d[5mC]*dA*d[5mC]*dA*d[5mC]*d[5mC]*dA*dT*kG*kA*kA) [compound 798679]” was tested. Which “% Inhibition” value did it give?
The value was 32%.

same assay, conditions: Hep3B cells, electroporation with 10,000 nM antisense oligonucleotide, approximately 24 hours, primer probe set RTS5062, relative to untreated control cells

“798941 (antisense kA*kA*kA*dA*dA*dA*dA*d[5mC]*dG*dA*d[5mC]*d[5mC]*dA*kA*kA*kG) [compound 798941]” was tested. Which “% Inhibition” value did it give?
The value was 40%.

For “799000 (antisense kG*k[5mC]*k[5mC]*dG*d[5mC]*dA*d[5mC]*dA*d[5mC]*dT*d[5mC]*dA*d[5mC]*kA*k[5mC]*kT) [compound 799000]”, which “% Inhibition” value is on record?
The value was 42%.

Which “% Inhibition” value does the source give for “799139 (antisense k[5mC]*kG*kG*dA*d[5mC]*d[5mC]*dA*dA*dA*dT*d[5mC]*d[5mC]*dT*kT*k[5mC]*kT) [compound 799139]” here?
The value was 56%.

Which “% inhibition of SMAD7 mRNA expression” value does the source give for “799151 (antisense kA*kG*k[5mC]*d[5mC]*dT*dA*dG*dG*dA*dT*dG*dG*dT*kA*k[5mC]*k[5mC]) [compound 799151]” here?
Its value is 39%.

Which “% inhibition of SMAD7 mRNA expression” value does the source give for “799360 (k[5mC]*k[5mC]*kA*dA*dG*dA*d[5mC]*dA*d[5mC]*dT*dT*d[5mC]*dT*k[5mC]*kT*k[5mC]; antisense) [compound 799360]” here?
Its value is 42%.

For “799379 (antisense kT*kT*kT*dG*dA*dT*dA*dG*dT*d[5mC]*d[5mC]*d[5mC]*dT*kA*kT*kG) [compound 799379]”, which “% inhibition of SMAD7 mRNA expression” value is on record?
The value was 0%.

How did the “% Inhibition” value turn out when “799119 (antisense kA*kG*k[5mC]*dA*dG*dA*dG*d[5mC]*dT*dT*dA*dA*d[5mC]*kA*k[5mC]*kA) [compound 799119]” was run?
The value was 50%.

same assay, conditions: Hep3B cells, electroporation, 10,000 nM antisense oligonucleotide, approximately 24 hours, RTS5062, relative to untreated control cells

“799652 (antisense kA*k[5mC]*kT*d[5mC]*dA*dA*dA*d[5mC]*d[5mC]*dA*dG*dG*dA*k[5mC]*kA*kG) [compound 799652]” was tested. Which “% inhibition of SMAD7 mRNA expression” value did it give?
Its value is 0%.

With “799735 (antisense kT*k[5mC]*k[5mC]*dA*d[5mC]*dG*dG*dG*dA*dG*dT*dG*dG*kA*kA*kG) [compound 799735]” as the substance, how does the “% inhibition of SMAD7 mRNA expression” value read?
Its value is 0%.

Which “% inhibition of SMAD7 mRNA expression” value does the source give for “799594 (kT*kG*kA*dA*d[5mC]*dG*dG*dA*dA*dA*dG*dA*dA*kG*kA*kA; antisense) [compound 799594]” here?
Its value is 35%.

Which “% inhibition of SMAD7 mRNA expression” value does the source give for “799720 (antisense kA*k[5mC]*kA*d[5mC]*dA*d[5mC]*dA*dG*d[5mC]*dA*dG*dA*dA*kG*kG*k[5mC]) [compound 799720]” here?
Its value is 40%.

Which “% inhibition of SMAD7 mRNA expression” value does the source give for “799775 (kA*k[5mC]*kA*d[5mC]*dA*dA*dG*dA*dG*dG*dG*dA*dA*kG*k[5mC]*k[5mC]; antisense) [compound 799775]” here?
The value was 22%.

“799774 (kG*k[5mC]*k[5mC]*d[5mC]*dT*dG*dT*dT*d[5mC]*dT*dG*d[5mC]*dG*k[5mC]*kT*kA; antisense) [compound 799774]” was tested. Which “% inhibition of SMAD7 mRNA expression” value did it give?
The value was 0%.

For “799535 (kA*kA*k[5mC]*dT*dT*dA*dA*dG*dG*d[5mC]*dA*dT*dA*kT*kA*kA; antisense) [compound 799535]”, which “% inhibition of SMAD7 mRNA expression” value is on record?
The value was 42%.

Which “% inhibition of SMAD7 mRNA expression” value does the source give for “799561 (kG*kG*kA*dA*dT*dG*dA*dA*d[5mC]*dT*dT*dT*dG*k[5mC]*k[5mC]*kT; antisense) [compound 799561]” here?
The value was 45%.

Which “% inhibition of SMAD7 mRNA expression” value does the source give for “799677 (antisense kG*k[5mC]*kT*d[5mC]*dA*dT*dG*dA*dG*d[5mC]*dA*dT*dT*kT*kG*kG) [compound 799677]” here?
Its value is 68%.

same assay, conditions: SMAD7 mRNA, Hep3B cells, 10,000 nM antisense oligonucleotide, electroporation, approximately 24 hours, primer probe set RTS5062, relative to untreated control cells

For “829779 (antisense kG*kG*kG*dA*dG*d[5mC]*dG*dA*dG*dT*dA*dG*dG*kA*k[5mC]*kG) [compound 829779]”, which “% Inhibition” value is on record?
The value was 58%.

“829715 (antisense kT*k[5mC]*kT*d[5mC]*d[5mC]*d[5mC]*dG*dG*dA*dG*dG*d[5mC]*d[5mC]*kG*kG*kG) [compound 829715]” was tested. Which “% Inhibition” value did it give?
The value was 40%.

How did the “% Inhibition” value turn out when “772715 (kA*kG*k[5mC]*dT*dA*dG*dG*dT*dG*dA*dT*dA*dA*k[5mC]*kA*k[5mC]; antisense) [compound 772715]” was run?
Its value is 0%.

same assay, conditions: SMAD7 mRNA, Hep3B cells, electroporation with 10,000 nM antisense oligonucleotide, approximately 24 hours, primer probe set RTS5062, relative to untreated control cells

How did the “% Inhibition” value turn out when “829903 (antisense k[5mC]*kT*kG*dT*dT*dG*dA*dA*dG*dA*dT*dG*dA*k[5mC]*k[5mC]*kT) [compound 829903]” was run?
Its value is 25%.

How did the “% Inhibition” value turn out when “829909 (antisense k[5mC]*kG*kG*d[5mC]*dT*dA*d[5mC]*d[5mC]*dG*dG*d[5mC]*dT*dG*kT*kT*kG) [compound 829909]” was run?
The value was 34%.

How did the “% Inhibition” value turn out when “829921 (antisense kT*k[5mC]*kA*dT*dA*d[5mC]*dG*dA*dG*dT*dG*dT*dA*kT*kG*kA) [compound 829921]” was run?
The value was 10%.

For “829797 (kG*kG*kT*dT*dG*dA*dT*d[5mC]*dT*dT*d[5mC]*d[5mC]*d[5mC]*kG*kT*kA; antisense) [compound 829797]”, which “% Inhibition” value is on record?
The value was 54%.

Which “% Inhibition” value does the source give for “829806 (kG*kA*k[5mC]*dT*d[5mC]*dT*dA*dG*dT*dT*d[5mC]*dG*d[5mC]*kA*kG*kA; antisense) [compound 829806]” here?
Its value is 41%.

“829989 (kG*kG*k[5mC]*d[5mC]*dG*d[5mC]*dG*dA*dG*dG*d[5mC]*dG*dG*kT*kG*kA; antisense) [compound 829989]” was tested. Which “% Inhibition” value did it give?
Its value is 2%.

For “829935 (k[5mC]*kT*kA*dG*dG*dT*dG*dA*dT*dA*dA*d[5mC]*dA*k[5mC]*k[5mC]*k[5mC]; antisense) [compound 829935]”, which “% Inhibition” value is on record?
The value was 0%.

How did the “% Inhibition” value turn out when “829879 (antisense kT*kG*kG*dA*dG*dT*d[5mC]*d[5mC]*dG*dG*dG*dT*dT*kG*kT*k[5mC]) [compound 829879]” was run?
The value was 29%.

— US10517889B2, “Modulators of SMAD7 expression” (Ionis Pharmaceuticals, Inc., priority 2017, dated 2019)
